The target of the assay is T1, full-length human PKCι (Homo sapiens, UniProt P41743).
T1 construct: Recombinant, full-length human PKCι expressed in Sf21 insect cells is also commercially available; purchased EMD Millipore; host or cells: Sf21 insect cells (baculovirus)
T1 sequence (P41743 1-596): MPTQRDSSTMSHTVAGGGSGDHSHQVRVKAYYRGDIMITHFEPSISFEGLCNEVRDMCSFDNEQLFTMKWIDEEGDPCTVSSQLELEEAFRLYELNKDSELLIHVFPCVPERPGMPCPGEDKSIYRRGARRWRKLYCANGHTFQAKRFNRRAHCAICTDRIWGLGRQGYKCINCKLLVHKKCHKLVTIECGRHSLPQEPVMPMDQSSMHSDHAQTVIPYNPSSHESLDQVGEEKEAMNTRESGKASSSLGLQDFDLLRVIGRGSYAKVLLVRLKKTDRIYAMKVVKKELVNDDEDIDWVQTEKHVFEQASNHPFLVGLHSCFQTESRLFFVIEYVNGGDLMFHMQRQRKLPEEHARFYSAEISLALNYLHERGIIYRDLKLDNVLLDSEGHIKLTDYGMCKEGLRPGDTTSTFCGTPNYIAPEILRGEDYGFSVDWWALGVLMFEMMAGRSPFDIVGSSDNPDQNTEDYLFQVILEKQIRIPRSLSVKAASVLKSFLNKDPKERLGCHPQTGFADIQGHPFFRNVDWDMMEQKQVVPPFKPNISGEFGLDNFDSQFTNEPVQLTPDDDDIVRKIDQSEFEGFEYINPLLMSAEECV
As to the kind of experiment: PKCι IC50 IMAP fluorescence polarisation assay, full-length enzyme, 150 μM ATP. It counts as biochemical. The following applies: read-out: IC50 in IMAP assay against full length PKCi at 150 μM ATP. The gist of the method: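 IMAP fluorescence polarisation kinase assay: 15 pM baculovirus-expressed human PKCiota with 100 nM FAM-pseudosubstrate peptide and 150 μM ATP, 1 h at 25 °C. IMAP detection reagent then 2 h at 25 °C before FP measurement. Inhibition referenced to no-compound and no-enzyme controls for IC50 fitting.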
For orientation: Fluorescence polarisation rises when a labelled molecule tumbles more slowly, as on binding a larger partner.
As to `CC1(C)CNCC[C@@H]1Nc1nc(-c2ccnc(Nc3cccnc3)c2)nc2cncc(C3CCC3)c12` [Example 264, 5-cyclobulyl-N-[(4S)-3,3-dimethyl-4-piperidyl]-2-[2-(3-pyridylamino)-4-pyridyl]pyrido[3,4-d]pyrimidin-4-amine], the IC50 (as a rule, the concentration that gives 50% inhibition) is less than 100 nM.
Under `c1ccc2c(c1)[nH]c1nccc(-c3nc(NC4CCCNCC4)c4c(C5CCC5)cncc4n3)c12` (stereo not drawn) [Example 22, Azepan-4-yl-[5-cyclobutyl-2-(9H-pyrido[2,3-b]indol-4-yl)-pyrido[3,4-d]pyrimidin-4-yl]-amine] stands less than 100 nM; under `O[C@]12CCN(c3nc(-c4ccnc(Nc5ncn(-c6ccccc6)n5)c4)nc4cncc(C5CC5)c34)[C@H]1CCNC2` [Example 236], less than 100 nM; under `CC1(C)CNCC[C@@H]1Nc1nc(-c2ccnc3[nH]c(-c4cncc(F)c4)cc23)nc2cncc(C3CC3)c12` [Example 365, {5-Cyclopropyl-2-[2-(5-fluoro-pyridin-3-yl)-1H-pyrrolo[2,3-b]pyridin-4-yl]-pyrido[3,4-d]pyrimidin-4-yl}-((S)-3,3-dimethyl-piperidin-4-yl)-amine], less than 100 nM.
Under `Cc1cc2c(-c3nc(N4CCCC5NCCCC54)c4c(C5CC5)cncc4n3)ccnc2[nH]1` (stereo not drawn) [Example 94, 5-Cyclopropyl-2-(2-methyl-1H-pyrrolo[2,3-b]pyridin-4-yl)-4-(octahydro-[1,5]naphthyridin-1-yl)-pyrido[3,4-d]pyrimidine] stands less than 100 nM; under `CC1(C)CNCC[C@@H]1Nc1nc(-c2ccnc(Nc3nc4ccccn4n3)c2)nc2cncc(C3CCC3)c12` [Example 275, {5-Cyclobutyl-2-[2-([1,2,4]triazolo[1,5-a]pyridin-2-ylamino)-pyridin-4-yl]-pyrido[3,4-d]pyrimidin-4-yl}-((S)-3,3-dimethyl-piperidin-4-yl)-amine], less than 100 nM; under `CC1(C)CNCC[C@@H]1Nc1nc(-c2ccnc(Nc3cncc(F)c3)c2)nc2cncc(C3CC3)c12` [Example 265, 5-cyelopropyl-N-[(4S)-3,3-dimethyl-4-piperidyl]-2-[2-[(5-fluoro-3-pyridyl)amino]-4-pyridyl]pyrido[3,4-d]pyrimidin-4-amine], 100 to 1000 nM.
`COc1ccccc1-c1cc2c(-c3nc(N(C)C4CCNCC4(C)C)c4c(C5CC5)cncc4n3)ccnc2[nH]1` (stereo not drawn) [Example 23, {5-Cyclopropyl-2-[2-(2-methoxy-phenyl)-1H-pyrrolo[2,3-b]pyridin-4-yl]-pyrido[3,4-d]pyrimidin-4-yl}-(3,3-dimethyl-piperidin-4-yl)-methyl-amine]: the half-maximal inhibitory concentration (IC50) is less than 100 nM.
With `C[C@@]1(O)CNCC[C@H]1Nc1nc(-c2ccnc3[nH]c(-c4cc(F)ccc4Cl)cc23)nc2cncc(C3CC3)c12` (racemic) [Example 354, rac-(3R,4R)-4-{2-[2-(2-Chloro-5-fluoro-phenyl)-1H-pyrrolo[2,3-b]pyridin-4-yl]-5-cyclopropyl-pyrido[3,4-d]pyrimidin-4-ylamino}-3-methyl-piperidin-3-ol], the 50% inhibitory concentration (IC50) is less than 100 nM.
With `Cc1nc(Nc2cc(-c3nc(N[C@H]4CCNC[C@H]4C)c4c(C5CCC5)cncc4n3)ccn2)ccc1C#N` (racemic) [Example 311, 6-{4-[5-Cyclobutyl-4-(rac-(3R,4S)-3-methyl-piperidin-4-ylamino)-pyrido[3,4-d]pyrimidin-2-yl]-pyridin-2-ylamino}-2-methyl-nicotinonitrile], the IC50 was less than 100 nM.
For `C[C@@]1(O)CNCC[C@H]1Nc1nc(-c2ccnc3[nH]c4ccccc4c23)nc2cncc(C3CCC3)c12` (racemic) [Example 246], the IC50 is less than 100 nM.
With `Fc1ccc(F)c(Nc2cc(-c3nc(NC4CCCNCC4)c4c(C5CCC5)cncc4n3)ccn2)n1` (stereo not drawn) [Example 160, Azepan-4-yl-{5-cyclobutyl-2-[2-(3,6-difluoro-pyridin-2-ylamino)-pyridin-4-yl]-pyrido[3,4-d]pyrimidin-4-yl}-amine], the IC50 was less than 100 nM.
Under `C[C@@H]1CNCC[C@H]1Nc1nc(-c2ccnc(Nc3ncccc3F)c2)nc2cncc(C3CC3)c12` (racemic) [Example 302, {5-Cyclopropyl-2-[2-(3-fluoro-pyridin-2-ylamino)-pyridin-4-yl]-pyrido[3,4-d]pyrimidin-4-yl}-(rac-(3R,4R)-3-methyl-piperidin-4-yl)-amine] stands less than 100 nM; under `Cc1cc2c(-c3nc(N4CC[C@H]5NCCC[C@H]54)c4c(C5CCC5)cncc4n3)ccnc2[nH]1` (racemic) [Example 85, (±)-5-Cyclobutyl-2-(2-methyl-1H-pyrrolo[2,3-b]pyridin-4-yl)-4-(3,7-cis)-octahydro-pyrrolo [3,2-b]pyridin-1-yl-pyrido[3,4-d]pyrimidine], less than 100 nM.
For the compound `Fc1ncccc1-c1cc2c(-c3nc(N4CCNCC4)c4c(C5CC5)cncc4n3)ccnc2[nH]1` [Example 43, 5-Cyclopropyl-2-[2-(2-fluoro-pyridin-3-yl)-1H-pyrrolo[2,3-b]pyridin-4-yl]-4-piperazin-1-yl-pyrido[3,4-d]pyrimidine], the IC50 was less than 100 nM.
As for `Fc1cc(F)c(Nc2cc(-c3nc(NC45CCNCC4C5)c4c(C5CCC5)cncc4n3)ccn2)nc1F` (stereo not drawn) [Example 208, (3-Aza-bicyclo[4.1.0]hept-6-yl)-{5-cyclobutyl-2-[2-(3,5,6-trifluoro-pyridin-2-ylamino)-pyridin-4-yl]-pyrido[3,4-d]pyrimidin-4-yl}-amine], the IC50 was less than 100 nM.
As for `Cc1cc2c(-c3nc(N(C)C4CCNCC4(C)C)c4c(C5CC5)cncc4n3)ccnc2[nH]1` (stereo not drawn) [Example 115, [5-Cyclopropyl-2-(2-methyl-1H-pyrrolo[2,3-b]pyridin-4-yl)-pyrido [3,4-d]pyrimidin-4-yl]-(3,3-dimethyl-piperidin-4-yl)-methyl-amine], the IC50 is less than 100 nM.
Take `c1ccc(Nc2cc(-c3nc(N[C@H]4[C@@H]5CNC[C@@H]54)c4c(C5CCC5)cncc4n3)ccn2)cc1` [Example 111, (1S,6S)-3-Aza-bicyclo[3.1.0]hex-6-yl-[(R)-5-cyclobutyl-2-(2-phenylamino-pyridin-4-yl)-pyrido[3,4-d]pyrimidin-4-yl]-amine]: the IC50 is less than 100 nM.
Turning to `C[C@@H]1CNCC[C@H]1Nc1nc(-c2ccnc3[nH]c4ccccc4c23)nc2cncc(C(F)(F)F)c12` (racemic) [Example 352, (rac-(3R,4R)-3-Methyl-piperidin-4-yl)-[2-(9H-pyrido[2,3-b]indol-4-yl)-5-trifluoromethyl-pyrido[3,4-d]pyrimidin-4-yl]-amine], the IC50 is less than 100 nM.
With `Cc1cc(C#N)cnc1Nc1cc(-c2nc(N[C@H]3CCNCC3(C)C)c3c(C4CCC4)cncc3n2)ccn1` [Example 323, 6-{4-[5-Cyclobutyl-4-((S)-3,3-dimethyl-pipcridin-4-ylamino)-pyrido[3,4-d]pyrimidin-2-yl]-pyridin-2-ylamino}-5-methyl-nicotinonitrile], the half-maximal inhibitory concentration (IC50) is less than 100 nM.
With `c1cncc(-c2cc3c(-c4nc(N5CCC6CNCCC65)c5c(C6CC6)cncc5n4)ccnc3[nH]2)c1` (stereo not drawn) [Example 356, 5-Cyclopropyl-4-(octahydro-pyrrolo[3,2-c]pyridin-1-yl)-2-(2-pyridin-3-yl-1H-pyrrolo[2,3-b]pyridin-4-yl)-pyrido[3,4-d]pyrimidine], the half-maximal inhibitory concentration (IC50) is less than 100 nM.

These data come from patent US10414763B2 (CANCER RESEARCH TECHNOLOGY LIMITED, priority 2014, dated 2019).
